Data reported in patent publication US20240165113A1, “METHODS OF TREATMENT FOR LEUKEMIA” (DNA SEQ 2, Inc., priority 2021, published 2024).
Like-named read-outs stand apart in the source and are kept apart here.

Legend:
[1] = biological target: T1, phosphorylated ABL1(T315I)(229-499) (Homo sapiens, UniProt P00519, T315I); assay: SPR binding to phosphorylated ABL1(T315I)(229-499); settings: Ni-NTA capture of 10xHis-tag
T1 construct: The protocol was adapted to generate phosphorylated 10×His-tev-ABL1(T315I)(229-499) for use in the SPR studies; made in house; host or cells: E. coli; autophosphorylated in vitro with ATP/MgCl2
T1 sequence (P00519 229-499 T315I): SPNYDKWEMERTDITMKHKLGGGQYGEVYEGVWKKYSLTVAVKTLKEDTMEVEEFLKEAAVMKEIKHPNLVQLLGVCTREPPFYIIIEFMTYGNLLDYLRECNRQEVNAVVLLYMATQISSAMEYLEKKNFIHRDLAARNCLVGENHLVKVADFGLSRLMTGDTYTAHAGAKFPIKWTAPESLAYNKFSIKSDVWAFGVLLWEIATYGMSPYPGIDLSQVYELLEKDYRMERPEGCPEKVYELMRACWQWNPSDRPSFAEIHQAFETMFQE

[2] = test system: human tumor cells; settings: growth of human tumor cells; cited from earlier work

## Nc1nc(N)c(N=O)c(OCC2CCCCC2)n1 [A-0001, 6-Cyclohexylmethyloxy-5-nitroso-pyrimidine-2,4-diamine]
[1]; HBST buffer, read-out: Phosphorylated ABL1(T315I)(229-499) in HBST buffer KD
  Kd: 13 µM
[1]; PBST buffer, read-out: Phosphorylated ABL1(T315I)(229-499) in PBST buffer KD
  Kd: 16 µM
[2]
  GI50: 10 µM
